For one data set, the target named is T1, proteasome (Mus musculus, UniProt O55234+P70195+Q60692).
T1 construct: endogenous in cells
Description: Covalent biotinylation of proteins in iBEp-treated neurons (SDS-PAGE biotin signal). The format is cell-based. An excerpt:
We next tested the potency and selectivity of iBEp relative to Epoxomicin. Epoxomicin covalently and irreversibly binds the catalytic β subunits of the proteasome-therefore, the biotin moiety on iBEp serves as a tracer to detect whether proteasomes are inhibited by monitoring biotin signal on an SDS-PAGE gel (83, 87-89). […] This is supported by previous data that modification of the non-reactive end of epoxomicin has been shown not to change the selectivity of Epoxomicin for the proteasome (83, 87-89). […] We therefore chose doses of inhibitor where the effective concentration of the inhibitor was similar to previous studies using Epoxomicin alone and well within the acceptable range of efficacy given how potent Epoxomicin is as a proteasome inhibitor.

The target of the next data set is T2, neuroproteasomes (Mus musculus, UniProt O55234+P70195+Q60692).
T2 construct: endogenous in cells; host or cells: primary cortical neurons from WT mice (DIV13-14); membrane and cytosolic fractions
In words: Suc-LLVY-AMC proteasome activity, membrane fraction of iBEp-treated neurons. The format is cell-based. Conditions: 6 hours, DIV14 neurons, vs DMSO. The text has this: (§1) (FIG. 4A) (Top) Structure of azide-PEG24-epoxomicin handle to enable rapid conjugation of linkers to global proteasome inhibitor epoxomicin using Click chemistry. (Bottom) Structure of Neuroproteasome-specific inhibitor impermeant Biotin-PEG24-Epoxomicin (iBEp). (FIG. 4B) Assessing permeability of iBEp in primary neurons. […] Cytosolic (Cyto) and membrane (Mem) fractions were immunoblotted using indicated antibodies. (FIG. 4C) Proteasome catalytic activity of membrane (Mem) and cytosolic (Cyto) fractions of neurons treated with iBEp. […] Proteasome catalytic activity was assessed by monitoring degradation of Suc-LLVY-AMC; proteasome-dependent cleavage of the substrate increases AMC fluorescence. N=3 biological replicates. **** p<0.0001 by One-Way ANOVA. (FIG. 4D) Primary neurons treated with iBEp probed for autophagy markers. […] Quantification of p62, LC3b, and Ulk1 intensities normalized to Actin. […] Sarkosyl-soluble and insoluble fractions were labeled with Tandem Mass Tags (TMTpro) for quantitative mass spectrometry. (FIG. 4F) Differential enrichment of proteins in the sarkosyl-soluble fraction of neurons treated with iBEp versus DMSO was analyzed and plotted as log 2-fold change vs-log 10 (P-value). […] (FIG. 4H) Differential enrichment of proteins in the sarkosyl-insoluble fraction of neurons treated with iBEp versus DMSO was analyzed and plotted as log 2-fold change vs −log 10 (P-value). […]

The next data set has as its target T3, cytosolic proteasomes (Mus musculus, UniProt O55234+P70195+Q60692).
T3 construct: endogenous in cells; host or cells: primary cortical neurons from WT mice (DIV13-14); membrane and cytosolic fractions
In words: Suc-LLVY-AMC proteasome activity, cytosolic fraction of iBEp-treated neurons. Format: cell-based. Conditions: 6 hours, DIV14 neurons, vs DMSO.
Excerpt: as §1

For the next data set, the system named is human Tau. In words: Sarkosyl fractionation and Tau immunoblot, hTau-KI primary cortical neurons. Format: cell-based. Conditions: 1 μM, 12 hours, vs DMSO. An excerpt: (FIG. 5A) Effect of neuroproteasome-specific inhibitor iBEp on Tau aggregation in primary neurons. […] Quantification of soluble and insoluble murine Tau (mTau) intensities normalized to soluble GAPDH. […] (FIG. 5B) Effect of neuroproteasome inhibition on aggregation of human Tau (hTau). […] (FIG. 5C) Generation of reversible neuroproteasome inhibitors to test effects of neuroproteasome inhibition. (Top) Structure of Sulfo-MG132 (SulfoMG). […] (FIG. 5D) Effect of reversible neuroproteasome inhibition using SulfoMG on Tau aggregation. […] Quantification of soluble and insoluble Tau intensities were normalized to soluble GAPDH. Data (right) are mean±SEM normalized respective to DMSO controls. […] (FIG. 5E) Testing iBEp permeability in vivo. […] 72 hours post injection, hippocampi were isolated and subjected to membrane fractionation without detergent. […] (FIG. 5F) Effect of neuroproteasome inhibition on Tau aggregation in vivo.
(In general: A western blot detects proteins with antibodies after separation by electrophoresis.)

Data set [1] in a line: iBEp permeability in vivo: stereotactic CA1 injection and membrane fractionation. Details: species or system mouse. Conditions: stereotactic injection into CA1, 72 hours.
A further data set concerns Tau. In words: Quantitative TMT phosphoproteomics of Tau in iBEp-treated WT neurons. The format is cell-based, mouse. Conditions: 1 μM, 1, 6 or 24 hours, WT primary neurons. An excerpt:
We noticed that neuroproteasome inhibition induces the shift of sarkosyl-insoluble Tau into a species which migrates at a higher molecular weight on an SDS-PAGE gel, at approximately 64 kDa (FIG. 5A, FIG. 5B, FIG. 5D, FIG. 5F, FIG. 5G). Similar shifts in molecular weight of Tau are observed in the AD brain and is a hallmark phenotype of multiple neurodegenerative disorders (109, 110). This molecular weight shift can in part be due to Tau phosphorylation at many residues. Therefore, we wanted to address whether iBEp-induced Tau aggregates are phosphorylated. Rather than profiling by a panel of phospho-specific antibodies against Tau, we took a more unbiased approach and measured Tau phosphorylation by quantitative phosphoproteomics. We treated primary WT neurons with iBEp for either 1, 6, or 24 hours and then performed sarkosyl fractionations.

Data set [2] concerns phosphorylated Tau. In words: Immunocytochemistry for phosphorylated Tau (CP13) in hTau-KI hippocampal neurons. Format: cell-based, mouse. Conditions: 12 hours, primary hippocampal hTau-KI neurons, vs controls.
Data set [3] relates to Thioflavin S-positive aggregates. In words: Thioflavin S staining of hippocampal sections of hTau-KI mice after stereotactic injection. Conditions: stereotactic injection, 72 hours, vs vehicle.
Description: (§2) Scale bars=15 μm (FIG. 6C) Immunohistochemical analysis of mice stereotactically injected with iBEp to measure Tau phosphorylation in vivo. […] Mice were collected 72 hours post injection and sections were stained using indicated antibodies: NeuN (blue) and AT8 (pTau, green). 4×, 20× and 60× representative images are shown. Quantification of pTau signal intensity was normalized to NeuN intensity. Analysis was done blinded to experimental condition. Data are mean±SEM normalized either to DMSO or iBEP+CHX. n=2 sections/animal, ** p<0.01 by Paired T-test/experiment. Scale bars=500 μm (left), scale bar=25 μm (right). (FIG. 6D) Immunohistochemical analysis of mice stereotactically injected with iBEp to measure Thioflavin-S positive Tau aggregates in vivo. Four-to-five month old hTau-KI mice were treated identically to (FIG. 6C), but stained for Thioflavin S (magenta) to visualize β-sheet containing aggregates and immunostained with NeuN (blue). N=7 (3M, 4F). Left, Vehicle-treated hippocampus, Right, iBEp-treated hippocampus (red). […] Data are quantification of number of flame-like Thioflavin-S positive inclusions. Counting and analysis was blinded to experimental condition. *** p<0.001 by one-way ANOVA. Scale bars=100 μm. (FIG. 6E) Higher magnification image of flame-like Thioflavin S-positive inclusions (magenta), NeuN (blue). Top, ThioS alone, Bottom, merge with NeuN. Scale bar=20 μm. […]
In data set [4] the test system is phosphorylated Tau. Description: Immunohistochemistry for phosphorylated Tau (AT8) in hTau-KI mice after stereotactic injection. Conditions: stereotactic injection, 72 hours, vs contralateral control.
Description: as §2

As to `CC[C@H](C)[C@H](NC(=O)CCOCCOCCOCCOCCOCCOCCOCCOCCOCCOCCOCCOCCOCCOCCOCCOCCOCCOCCOCCOCCOCCOCCOCCOCCn1cc(COCCOCCOCCOCCNC(=O)CCCC[C@@H]2SC[C@@H]3NC(=O)N[C@@H]32)nn1)C(=O)N[C@H](C(=O)N[C@H](C(=O)N[C@@H](CC(C)C)C(=O)[C@@]1(C)CO1)[C@@H](C)O)[C@@H](C)CC` [iBEp, Biotin-PEG24-Epoxomicin], at proteasome, the “proteins covalently biotinylated in treated neurons (specificity)” value was “covalent biotinylation of only three proteins”. Further, the “proteasome activity in the membrane fraction” value on neuroproteasomes is listed as “almost entirely abrogated”. The cytosolic proteasome activity entry at cytosolic proteasomes is given as “remains completely intact”. Further, the “sarkosyl-insoluble Tau, hTau-KI neurons” value in the data set with human Tau was “significant increase in sarkosyl-insoluble Tau”. Also, in data set [1], the “injected concentration at which penetration into the cytosol is observed” value was determined as 64 µM. In addition, the “Tau phosphorylation sites (human S202, T205, T217, S404)” value with Tau is listed as “time-dependent increase in Tau phosphorylation at only 4 of 26 identified sites”. For the same compound, the “CP13 (phosphorylated S202 Tau) signal” value in the data set with phosphorylated Tau [2] is listed as “significant elevation of CP13 signal”. The “ThioS staining in the CA1 region of hippocampi” value in data set [3] was “strong increase in ThioS staining”. Besides, the “phosphorylated Tau (AT8) signal in injected hippocampi” value with phosphorylated Tau [4] is reported as “threefold induction of phosphorylated Tau signal”.

Values taken from patent publication US20250281564A1, “DYSREGULATION OF NEUROPROTEASOMES BY APOE ISOFORMS DRIVES ENDOGENOUS TAU AGGREGATION” (The Trustees of Columbia University in the City of New York, priority 2022, published 2025).
